Activity calls are given as the source filed them. The rule behind the calls is not given here.

Sequence of Chaperone protein DnaK (Escherichia coli (strain K12)) (P0A6Y8 whole entry, looked up, the tested form may be a part): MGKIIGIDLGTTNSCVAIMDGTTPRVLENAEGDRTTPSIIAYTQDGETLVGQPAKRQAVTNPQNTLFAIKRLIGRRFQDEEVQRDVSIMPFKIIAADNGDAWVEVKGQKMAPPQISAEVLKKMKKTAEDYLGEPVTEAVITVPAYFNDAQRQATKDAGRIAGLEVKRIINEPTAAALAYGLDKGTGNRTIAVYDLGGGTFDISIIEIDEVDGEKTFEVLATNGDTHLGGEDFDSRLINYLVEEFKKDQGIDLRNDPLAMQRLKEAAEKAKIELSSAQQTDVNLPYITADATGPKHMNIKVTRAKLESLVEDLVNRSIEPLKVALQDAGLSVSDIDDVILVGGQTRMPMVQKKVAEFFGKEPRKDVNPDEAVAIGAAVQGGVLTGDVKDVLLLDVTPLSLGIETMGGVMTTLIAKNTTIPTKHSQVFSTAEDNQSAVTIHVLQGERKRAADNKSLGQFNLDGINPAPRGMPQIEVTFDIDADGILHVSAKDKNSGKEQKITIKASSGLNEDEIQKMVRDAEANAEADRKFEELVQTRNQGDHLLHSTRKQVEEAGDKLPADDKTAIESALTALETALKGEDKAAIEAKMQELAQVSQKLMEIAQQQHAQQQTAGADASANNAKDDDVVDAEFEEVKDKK

This assay has as its target Chaperone protein DnaK (Escherichia coli (strain K12)) (UniProt P0A6Y8). The assay can be described thus: binders of DnaK substrate-binding domain, biophysical, NMR, chaperone (AID 1033). Conditions: Purified DnaK SBD, NMR ligand binding.
Broadly, the Kd is the constant that tells how readily two partners part at equilibrium. As to `CC(=O)NC(=S)Nc1ccccc1C`, the Kd was > 4 mM (inactive).

`O=C1CCNc2cc3ccccc3cc21`: the Kd is > 4 mM (inactive).

As to `CN1CCOc2cc(C(=O)O)ccc21`, the Kd was > 4 mM (inactive).

Consider `CCOC(=O)CC1NCCNC1=O` (stereo not drawn), for which the Kd was > 4 mM (inactive).

On to `Cc1ccc(S(C)(=O)=O)s1`, for which the Kd is > 4 mM (inactive).

`CC1=CCCC2C1(C)CCC(C)C2(C)CC/C(C)=C/C[n+]1cn(C)c2c(N)ncnc21` (stereo not drawn): the Kd is > 4 mM (inactive).

Turning to `Cc1cc(C)nc(/N=C(/N)N2CCN(C)CC2)n1`, the Kd is > 4 mM (inactive).

With `CN(C(N)=O)C1(C)CCS(=O)(=O)C1` (stereo not drawn), the Kd was > 4 mM (inactive).

Regarding `CC(=O)Nc1ccc(S(=O)(=O)NC2=NCCS2)cc1`, the Kd was > 4 mM (inactive).

Take `CCCCN1C(=O)N(C)C2NC(=O)NC21` (stereo not drawn): the Kd was > 4 mM (inactive).

On to `O=S(=O)(O)c1nc2ccccc2[nH]1`, for which the Kd was > 4 mM (inactive).

In the case of `COc1ccc(/C=C/c2cc(O)cc(O)c2)cc1`, the Kd is > 4 mM (inactive).

On to `O=C1N/C(=N\c2ccccn2)SC1Cc1ccccc1` (stereo not drawn), for which the Kd is > 4 mM (inactive).

Turning to `CCN1C(=O)c2cccc3c(S(N)(=O)=O)ccc1c23`, the Kd is > 4 mM (inactive).

Regarding `NC(=O)CS(=O)(=O)c1ccc2ccccc2c1`, the Kd is > 4 mM (inactive).

Turning to `O=C(O)Cn1c(=O)sc2ccccc21`, the Kd was > 4 mM (inactive).

As to `O=C1NC(=Nc2ccc(O)cc2)S/C1=C/c1ccco1`, the Kd was > 4 mM (inactive).

Consider `CC(=O)CNc1cc(CNC(C)=O)c(C)cc1C`, for which the Kd is > 4 mM (inactive).

As to `CC(=O)Nc1ccc(S(N)(=O)=O)cc1`, the Kd was > 4 mM (inactive).

On to `COC(=O)c1sccc1S(=O)(=O)N1CCCC1`, for which the Kd was > 4 mM (inactive).

Take `CC(=O)Oc1ccc2c(c1OC(C)=O)OCC1(O)Cc3c(cc(OC(C)=O)c(OC(C)=O)c3OC(C)=O)C21` (stereo not drawn): the Kd was > 4 mM (inactive).

Take `CC1(C)C(=O)N(O)C(C)(C)C(=O)N1O`: the Kd is > 4 mM (inactive).

`Cc1ccc(N)nc1`: the Kd was > 4 mM (inactive).

For `Cn1c(O)c(/C=C2\C=CC=N2)c(=O)[nH]c1=O`, the Kd is > 4 mM (inactive).

On to `OCC1CCCN2CCCCC12` (stereo not drawn), for which the Kd was > 4 mM (inactive).

In the case of `Cc1ccc(C(=O)N2CC(=O)NC(=O)C2)cc1`, the Kd was > 4 mM (inactive).

`CC1(C)C=Cc2cc3ccc(=O)oc3cc2O1`: the Kd is > 4 mM (inactive).

As for `Cc1ccc2nc(SCCC#N)nc(C)c2c1`, the Kd was > 4 mM (inactive).

`CCn1c2ccccc2c2nn(C)c(=N)nc21`: the Kd is > 4 mM (inactive).

With `Cc1n[nH]c(=S)[nH]c1=O`, the Kd was > 4 mM (inactive).

With `O=C(Nc1ccon1)c1cc2c(s1)CCCC2`, the Kd is > 4 mM (inactive).

Take `O=C(NCc1cccs1)c1ccncc1`: the Kd was > 4 mM (inactive).

`CC(=O)NC(C)(C)C1CC=C(C)/C(=N\O)C1` (stereo not drawn): the Kd was > 4 mM (inactive).

Take `O=C(NC(=S)NC1CCSC1=O)c1ccco1` (stereo not drawn): the Kd was > 4 mM (inactive).

On to `O=c1nc(N2CCCCC2)nc2n1CCO2`, for which the Kd is > 4 mM (inactive).

For the compound `O=C1CSC(c2ccccc2)N1` (stereo not drawn), the Kd was > 4 mM (inactive).

Turning to `C=C(C)CSc1nc2nc(C)cc(C)n2n1`, the Kd was > 4 mM (inactive).

Turning to `CC(=O)Nc1cccs1`, the Kd is > 4 mM (inactive).

Consider `CCC1=Nc2ccccc2-c2nnc(SC)nc2O1`, for which the Kd was > 4 mM (inactive).

For `CN1C2C[C@H](OC(=O)[C@H](CO)c3ccccc3)C[C@H]1[C@@H](O)C2`, the Kd was > 4 mM (inactive).

As for `O=C1CN(C(=O)c2ccccc2)c2ccccc2N1`, the Kd is > 4 mM (inactive).

As to `O=C(O)CNC(=O)c1ccccc1Cl`, the Kd is > 4 mM (inactive).

As to `Cc1ccc(C)n1-c1ccc(C(=O)N2CCOCC2)cc1`, the Kd was > 4 mM (inactive).

Turning to `CC(=O)c1ccc(NC(=S)N2CCC(O)CC2)cc1`, the Kd was > 4 mM (inactive).

On to `CC(=O)/C=C\[C@@H]1[C@@]2(C)CCCC(C)(C)C2CC[C@@]1(C)O` (stereo partly drawn), for which the Kd is > 4 mM (inactive).

Consider `COc1ccc2c(c1O)-c1c(OC)c(OC)cc3c1[C@H](C2)N(C)CC3`, for which the Kd was > 4 mM (inactive).

On to `COC(=O)c1cccc(N)c1`, for which the Kd is > 4 mM (inactive).

Take `COCCn1c(N)nc2c1c(=O)[nH]c(=O)n2C`: the Kd was > 4 mM (inactive).

As for `Cn1ncc(CO)c1-c1ccccc1`, the Kd was > 4 mM (inactive).

Take `COc1c2ccccc2nc2occc12`: the Kd is > 4 mM (inactive).

On to `O=C(NC(=O)N1CCOCC1)c1ccccc1`, for which the Kd is > 4 mM (inactive).

As for `Cc1nc2ccc(C(=O)N3CCSCC3)cc2s1`, the Kd was > 4 mM (inactive).

Take `CC1(C)Oc2ccc(N)cc2O1`: the Kd is > 4 mM (inactive).

As to `O=C(Nc1ccon1)c1ccc2c(c1)OCO2`, the Kd is > 4 mM (inactive).

With `CC1=CC2C(CC1=O)C(C)=CCC2C(C)C` (stereo not drawn), the Kd is > 4 mM (inactive).

As to `CN1CCC(=NNC(=O)c2ccco2)CC1`, the Kd was > 4 mM (inactive).

On to `COc1ccccc1-c1cn[nH]c(=S)n1`, for which the Kd is > 4 mM (inactive).

In the case of `O=c1nc(C(F)(F)F)nc2ccccn12`, the Kd was > 4 mM (inactive).

In the case of `CC(C)/C(O)=C1/C(=O)O[C@@H](c2ccoc2)[C@]2(C)C(O)[C@@H](O)[C@@]34OC5(C)OC67CC(C)(C(O)[C@]6(O)[C@@H](O)[C@]3(O5)C12)[C@H](CC(=O)O)[C@]74C` (stereo partly drawn), the Kd was > 4 mM (inactive).

For `COC(=O)c1sc(N)nc1C`, the Kd is > 4 mM (inactive).

For `COc1cc(/C=C2/NC(=S)NC2=O)cc(Cl)c1O`, the Kd is > 4 mM (inactive).

In the case of `CCC(C)C(=O)O[C@@H]1C[C@@]2(C)[C@H](c3ccoc3)OC(=O)CC23OC2(C)OC34[C@H](OC(=O)C(C)C)[C@@]3(O)[C@@H](OC(=O)C5(C)OC5C)[C@@]5(C)C[C@]3(O)[C@@](C)([C@H]5CC(=O)OC)C14O2` (stereo partly drawn), the Kd is > 4 mM (inactive).

Consider `CC(=O)c1cccc(N=C2NC(=O)CS2)c1`, for which the Kd was > 4 mM (inactive).

For `Clc1ccccc1OCc1nc(-c2ccncc2)no1`, the Kd is > 4 mM (inactive).

Turning to `Cc1ccc(S(=O)(=O)CC(=O)N2CCCC2)cc1`, the Kd is > 4 mM (inactive).

In the case of `CNC(=O)CC1Sc2ccccc2NC1=O` (stereo not drawn), the Kd was > 4 mM (inactive).

Regarding `Cc1cc(N2CCN(C)CC2)ncn1`, the Kd was > 4 mM (inactive).

As for `NC(=O)C1CCN(C(=O)Nc2ccccc2)CC1`, the Kd is > 4 mM (inactive).

`COc1ccc2nc(N)sc2n1`: the Kd was > 4 mM (inactive).

For the compound `Cc1cc(NC(=O)c2cnn3cccnc23)no1`, the Kd was > 4 mM (inactive).

Take `C=C(C)[C@H]1CC=C(C(=O)O)CC1`: the Kd was > 4 mM (inactive).

On to `CC(=O)c1cc(CN2C(=O)c3ccccc3C2=O)cs1`, for which the Kd is > 4 mM (inactive).

With `Cc1cc(C(=O)N2CCN(c3ccccn3)CC2)no1`, the Kd was > 4 mM (inactive).

In the case of `CC[C@@]1(O)C[C@H](O)c2c(cc3c(c2O)C(=O)c2c(O)ccc(O)c2C3=O)[C@H]1C(=O)OC`, the Kd is > 4 mM (inactive).

For `O=C1CSC(=Nc2ccc(C(=O)O)cc2)N1`, the Kd is > 4 mM (inactive).

As to `Cc1sc2nc(SCC(=O)N(C)C)[nH]c(=O)c2c1C`, the Kd is > 4 mM (inactive).

`Cc1ccc(C)n1/N=C1\NC(=O)CS1`: the Kd is > 4 mM (inactive).

Consider `CC1(C)N=C2C(=N)C=CC=C2N1O`, for which the Kd is > 4 mM (inactive).

Take `O=C1NCC(=O)N2CCc3ccccc3C12` (stereo not drawn): the Kd was > 4 mM (inactive).

`CCN1CCn2c1nc(N1CCOCC1)nc2=O`: the Kd is > 4 mM (inactive).

Regarding `Clc1ncc2[nH]cnc2n1`, the Kd is > 4 mM (inactive).

Consider `NC1=C([N+](=O)[O-])C(=O)c2ccccc21`, for which the Kd is > 4 mM (inactive).

For the compound `NC1CSCC1O` (stereo not drawn), the Kd is > 4 mM (inactive).

In the case of `O=C(c1nc2ccccc2s1)N1CCSCC1`, the Kd was > 4 mM (inactive).

On to `CN(C(=O)c1cc2cccnc2n(C)c1=O)c1ccccc1`, for which the Kd is > 4 mM (inactive).

As for `O=C(NS(=O)(=O)c1ccccc1)c1ccccc1F`, the Kd is > 4 mM (inactive).

Turning to `Oc1cccc(N2CCOCC2)c1`, the Kd was > 4 mM (inactive).

As for `CNC(=O)C(=O)Nc1c(C)cccc1C`, the Kd is > 4 mM (inactive).

With `O=C(O)C1COc2ccccc2C1` (stereo not drawn), the Kd is > 4 mM (inactive).

With `O=C(Nc1ccc2c(c1)OCO2)c1cccs1`, the Kd was > 4 mM (inactive).

With `O=C(c1nc2ncccn2n1)N1CCc2ccccc2C1`, the Kd was > 4 mM (inactive).

Turning to `CC(=O)O[C@@H]1CC2C(C)(C)C(=O)C=C[C@]2(C)C2CC[C@]3(C)C(=CC(=O)O[C@H]3c3ccoc3)[C@@]21C` (stereo partly drawn), the Kd is > 4 mM (inactive).

For the compound `CCC(/C=C/[C@@H](C)[C@H]1CCC2C3CC=C4C[C@@H](O)CC[C@]4(C)C3CC[C@@]21C)C(C)C` (stereo partly drawn), the Kd was > 4 mM (inactive).

On to `NC(=O)/C=C/C(=O)Nc1ccccc1`, for which the Kd was > 4 mM (inactive).

Turning to `CC(=O)C1CC[C@H]2C3CC[C@H]4C[C@H](O)CC[C@]4(C)C3CC[C@]12C` (stereo partly drawn), the Kd is > 4 mM (inactive).

With `O=C(O)c1ccccc1C(=O)Nc1ccccc1`, the Kd is > 4 mM (inactive).

For the compound `NC(=O)CC1Sc2ccccc2NC1=O` (stereo not drawn), the Kd is > 4 mM (inactive).

Take `COc1ccc(Cl)cc1-c1nc(-c2ccncc2)no1`: the Kd is > 4 mM (inactive).

For the compound `COCC(=O)Nc1ccc(C)c(Cl)c1`, the Kd was > 4 mM (inactive).

Consider `Cc1cc(=O)oc2cc(O)c(O)cc12`, for which the Kd is > 4 mM (inactive).

On to `Nc1nc(-c2nc3ccccc3[nH]2)cs1`, for which the Kd is > 4 mM (inactive).

For the compound `CCC(=O)Nc1cc(C(C)C)c(O)cc1C`, the Kd is > 4 mM (inactive).

Take `O=C1NCCCC1C(=O)N/N=C/c1ccccc1` (stereo not drawn): the Kd was > 4 mM (inactive).

(Values after PubChem BioAssay AID1033 (Sanford-Burnham Center for Chemical Genomics, 2008).)
